Counter-ions that a name gives are not always drawn. Like-named read-outs stand apart in the source and are kept apart here.
Columns and labels:
Assay type in all cases: biochemical
[1] = target: T1, recombinant human PREP (rhPREP) (Homo sapiens, UniProt P48147); test: PREP enzymatic activity assay; conditions: Z-Gly-Pro-AMC substrate
T1 sequence (P48147 1-710): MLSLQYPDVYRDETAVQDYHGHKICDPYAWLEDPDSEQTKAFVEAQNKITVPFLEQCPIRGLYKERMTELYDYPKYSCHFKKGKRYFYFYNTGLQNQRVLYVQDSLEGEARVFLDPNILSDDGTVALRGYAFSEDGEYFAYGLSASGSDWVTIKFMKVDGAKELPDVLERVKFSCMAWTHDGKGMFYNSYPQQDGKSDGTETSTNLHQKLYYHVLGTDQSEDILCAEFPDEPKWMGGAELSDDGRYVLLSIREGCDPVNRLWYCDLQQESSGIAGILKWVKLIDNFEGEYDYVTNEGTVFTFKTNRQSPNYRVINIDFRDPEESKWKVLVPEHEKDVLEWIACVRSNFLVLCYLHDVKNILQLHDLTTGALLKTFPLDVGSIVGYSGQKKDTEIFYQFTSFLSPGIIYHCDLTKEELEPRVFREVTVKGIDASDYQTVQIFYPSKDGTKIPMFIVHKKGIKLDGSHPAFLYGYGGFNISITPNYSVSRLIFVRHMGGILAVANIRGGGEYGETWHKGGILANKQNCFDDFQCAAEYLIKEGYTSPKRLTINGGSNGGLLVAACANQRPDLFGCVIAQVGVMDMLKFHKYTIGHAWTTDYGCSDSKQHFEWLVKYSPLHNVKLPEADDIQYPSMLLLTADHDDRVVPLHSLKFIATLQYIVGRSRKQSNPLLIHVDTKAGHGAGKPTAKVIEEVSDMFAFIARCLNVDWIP
Description: (§1) 7-Amino-4-Methylcoumarin (AMC) release was detected by measuring fluorescence at Ex/Em 380/460 nm using a Multifunction Microplate Reader (Synergy 4, Biotek). All measurements were carried out in triplicate.

[2] = target: T2, recombinant human FAPα (rhFAPα) (Homo sapiens, UniProt Q12884); test: FAPα enzymatic exopeptidase (dipeptidase) activity assay; conditions: for inhibition at 1 µM: 1 μM test compound, Z-Gly-Pro-AMC substrate, read-out: rhFAPα (% exo inh @ 1 μM); for IC50: exopeptidase, read-out: rhFAPα (exo IC50)
T2 construct: purchased R&S system (so in the source)
T2 sequence (Q12884 1-760): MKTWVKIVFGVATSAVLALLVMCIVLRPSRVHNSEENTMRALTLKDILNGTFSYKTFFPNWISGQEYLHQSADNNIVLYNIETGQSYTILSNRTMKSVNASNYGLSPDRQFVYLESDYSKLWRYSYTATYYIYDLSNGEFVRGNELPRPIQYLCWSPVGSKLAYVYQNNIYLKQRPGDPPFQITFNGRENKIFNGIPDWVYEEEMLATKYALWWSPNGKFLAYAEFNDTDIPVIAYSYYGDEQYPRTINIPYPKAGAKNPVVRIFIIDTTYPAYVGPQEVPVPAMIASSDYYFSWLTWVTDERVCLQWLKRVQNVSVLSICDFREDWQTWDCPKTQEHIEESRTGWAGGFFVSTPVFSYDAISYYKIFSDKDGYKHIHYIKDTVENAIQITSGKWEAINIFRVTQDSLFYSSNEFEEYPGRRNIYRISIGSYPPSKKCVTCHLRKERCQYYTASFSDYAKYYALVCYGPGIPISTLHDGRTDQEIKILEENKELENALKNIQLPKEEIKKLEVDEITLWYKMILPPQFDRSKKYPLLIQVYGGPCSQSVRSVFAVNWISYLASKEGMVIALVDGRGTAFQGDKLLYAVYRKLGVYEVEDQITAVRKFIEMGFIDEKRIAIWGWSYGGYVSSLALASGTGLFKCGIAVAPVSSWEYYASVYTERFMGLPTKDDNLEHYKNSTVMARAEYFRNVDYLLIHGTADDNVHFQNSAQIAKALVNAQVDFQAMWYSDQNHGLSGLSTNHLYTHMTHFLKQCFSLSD

[3] = target: T3, recombinant human DPPIV (rhDPPIV) (Homo sapiens, UniProt P27487); test: DPPIV enzymatic activity assay; conditions: H-Gly-Pro-pNA substrate
T3 construct: purchased R&S system (so in the source)

[4] = target: T4, recombinant human DPP9 (rhDPP9) (Homo sapiens, UniProt Q86TI2); test: DPP9 enzymatic activity assay; conditions: H-Gly-Pro-AMC substrate
T4 construct: purchased R&S system (so in the source)
Description: as §1

T4 sequence (Q86TI2 whole entry): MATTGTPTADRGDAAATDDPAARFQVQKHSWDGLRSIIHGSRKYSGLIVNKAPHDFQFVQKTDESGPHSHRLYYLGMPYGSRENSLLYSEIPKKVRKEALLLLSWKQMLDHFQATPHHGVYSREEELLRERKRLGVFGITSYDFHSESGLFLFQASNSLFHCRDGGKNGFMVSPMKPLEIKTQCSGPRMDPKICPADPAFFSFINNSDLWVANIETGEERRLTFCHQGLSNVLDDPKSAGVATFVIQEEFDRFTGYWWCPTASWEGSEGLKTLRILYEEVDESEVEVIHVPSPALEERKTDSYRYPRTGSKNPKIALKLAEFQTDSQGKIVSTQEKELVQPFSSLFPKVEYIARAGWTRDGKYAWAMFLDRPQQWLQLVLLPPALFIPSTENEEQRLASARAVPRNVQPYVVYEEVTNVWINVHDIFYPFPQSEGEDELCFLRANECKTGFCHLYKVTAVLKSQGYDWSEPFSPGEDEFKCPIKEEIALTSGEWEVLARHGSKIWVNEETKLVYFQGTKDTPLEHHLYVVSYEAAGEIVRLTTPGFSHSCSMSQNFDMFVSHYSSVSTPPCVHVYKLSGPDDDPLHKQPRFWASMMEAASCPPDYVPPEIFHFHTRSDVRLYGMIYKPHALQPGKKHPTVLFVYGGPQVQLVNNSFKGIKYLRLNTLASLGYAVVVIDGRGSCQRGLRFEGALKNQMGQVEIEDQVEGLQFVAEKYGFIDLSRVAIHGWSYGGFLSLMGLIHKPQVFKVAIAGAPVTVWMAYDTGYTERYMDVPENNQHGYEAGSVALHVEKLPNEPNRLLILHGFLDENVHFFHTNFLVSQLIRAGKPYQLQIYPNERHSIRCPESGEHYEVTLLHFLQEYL
T3 sequence (P27487 whole entry): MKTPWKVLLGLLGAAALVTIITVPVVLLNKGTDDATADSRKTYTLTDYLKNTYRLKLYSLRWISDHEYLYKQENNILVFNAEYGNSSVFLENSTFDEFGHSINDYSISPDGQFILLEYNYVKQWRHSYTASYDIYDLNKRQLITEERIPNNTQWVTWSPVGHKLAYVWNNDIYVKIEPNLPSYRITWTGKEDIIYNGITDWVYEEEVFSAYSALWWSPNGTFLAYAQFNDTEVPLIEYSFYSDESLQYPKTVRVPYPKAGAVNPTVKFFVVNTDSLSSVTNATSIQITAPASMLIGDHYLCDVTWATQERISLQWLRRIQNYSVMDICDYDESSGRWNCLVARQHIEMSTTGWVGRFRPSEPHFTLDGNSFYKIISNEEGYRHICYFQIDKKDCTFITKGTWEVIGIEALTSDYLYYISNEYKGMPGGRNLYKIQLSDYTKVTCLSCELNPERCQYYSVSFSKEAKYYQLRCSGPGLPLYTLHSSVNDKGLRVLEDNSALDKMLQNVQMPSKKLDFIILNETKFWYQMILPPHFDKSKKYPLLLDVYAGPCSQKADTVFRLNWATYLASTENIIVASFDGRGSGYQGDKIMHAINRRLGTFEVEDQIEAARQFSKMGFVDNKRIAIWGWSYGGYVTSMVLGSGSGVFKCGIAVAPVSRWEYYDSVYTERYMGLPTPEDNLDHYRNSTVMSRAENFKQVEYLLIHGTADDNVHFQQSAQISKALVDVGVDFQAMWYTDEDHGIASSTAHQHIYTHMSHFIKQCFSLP

SMILES	IC50 [1] [µM]	inhibition at 1 µM [2] [%]	IC50 ([2]; Table 2, Z-Gly-Pro-AMC) [µM]	IC50 ([2]; Table 3) [µM]	IC50 [3] [µM]	IC50 [4] [µM]
N#C[C@@H]1CC(F)(F)CN1C(=O)CNC(=O)c1ccc2nccc(-c3ccccc3)c2c1 [Compound 19, (S)—N-(2-(2-cyano-4,4-difluoropyrrolidin-1-yl)-2-oxoethyl)-4-phenylquinoline-6-carboxamide]	> 10	> 50	< 1	< 1	> 10	
N#C[C@@H]1CC(F)(F)CN1C(=O)CNC(=O)c1ccc(=O)n2c1CCCCC2 [Compound 21, (S)—N-(2-(2-cyano-4,4-difluoropyrrolidin-1-yl)-2-oxoethyl)-4-oxo-4,6,7,8,9,10-hexahydropyrido[1,2-a]azepine-1-carboxamide]	1 to 10	> 50	< 1	< 1	> 10	> 10
N#C[C@@H]1CC(F)(F)CN1C(=O)CNC(=O)c1coc(=O)c2ccccc12 [Compound 22, (S)—N-(2-(2-cyano-4,4-difluoropyrrolidin-1-yl)-2-oxoethyl)-1-oxo-1H-isochromene-4-carboxamide]	1 to 10	> 50	< 1	< 1	> 10	
N#C[C@@H]1CC(F)(F)CN1C(=O)CNC(=O)c1c[nH]c(=O)cc1-c1ccccc1 [Compound 29, (S)—N-(2-(2-cyano-4,4-difluoropyrrolidin-1-yl)-2-oxoethyl)-6-oxo-4-phenyl-1,6-dihydropyridine-3-carboxamide]	> 10	> 50	< 1	< 1	1 to 10	> 10
N#C[C@@H]1CC(F)(F)CN1C(=O)CNC(=O)c1ccncc1N1CCCCC1 [Compound 42]	> 10	> 50	< 1	< 1	> 10	> 10
N#C[C@@H]1CC(F)(F)CN1C(=O)CNC(=O)c1ccncc1C1=CCCCC1 [Compound 43, N-(2-((S)-2-cyano-4,4-difluoropyrrolidin-1-yl)-2-oxoethyl)-3-(cyclohex-1-en-1-yl)isonicotinamide]	> 10	> 50	< 1	< 1	> 10	1 to 10
N#C[C@@H]1CC(F)(F)CN1C(=O)CNC(=O)c1ccncc1-c1ccnc2ccccc12 [Compound 51, (S)—N-(2-(2-cyano-4,4-difluoropyrrolidin-1-yl)-2-oxoethyl)-3-(quinolin-4-yl)isonicotinamide]	> 10	> 50	< 1	< 1	1 to 10	> 10
Cc1ccccc1-c1cnccc1C(=O)NCC(=O)N1CC(F)(F)C[C@H]1C#N [Compound 64, (S)—N-(2-(2-cyano-4,4-difluoropyrrolidin-1-yl)-2-oxoethyl)-3-(o-tolyl)isonicotinamide]	> 10	> 50	< 1	< 1	> 10	> 10
Cn1ccc2c(-c3cnccc3C(=O)NCC(=O)N3CC(F)(F)C[C@H]3C#N)cccc21 [Compound 66, (S)—N-(2-(2-cyano-4,4-difluoropyrrolidin-1-yl)-2-oxoethyl)-3-(1-methyl-1H-indol-4-yl)isonicotinamide]	> 10	> 50	< 1	< 1	> 10	> 10
N#C[C@@H]1CC(F)(F)CN1C(=O)CNC(=O)c1ccncc1Nc1ccccc1 [Compound 102]	> 10	> 50	< 1	< 1	> 10	> 10
N#C[C@@H]1CC(F)(F)CN1C(=O)CNC(=O)c1ccncc1-c1ccc2c(c1)CCN2 [Compound 104, (S)—N-(2-(2-cyano-4,4-difluoropyrrolidin-1-yl)-2-oxoethyl)-3-(indolin-5-yl)isonicotinamide]	> 10	> 50	< 1	< 1	> 10	> 10
CC(C)(C)c1cccc(-c2cnccc2C(=O)NCC(=O)N2CC(F)(F)C[C@H]2C#N)c1 [Compound 112, (S)-3-(3-(tert-butyl)phenyl)-N-(2-(2-cyano-4,4-difluoropyrrolidin-1-yl)-2-oxoethyl)isonicotinamide]	> 10	> 50	< 1	< 1	> 10	> 10
N#C[C@@H]1CC(F)(F)CN1C(=O)CNC(=O)c1ccncc1/C=C/c1ccccc1 [Compound 124, (S,E)-N-(2-(2-cyano-4,4-difluoropyrrolidin-1-yl)-2-oxoethyl)-3-styrylisonicotinamide]		> 50	< 1	< 1		1 to 10

Results, then the compound that gave them:

IC50 [1] [µM]	inhibition at 1 µM [2] [%]	IC50 ([2]; Table 2, Z-Gly-Pro-AMC) [µM]	IC50 ([2]; Table 3) [µM]	IC50 [3] [µM]	IC50 [4] [µM]	SMILES
> 10	> 50	< 1	< 1	> 10	> 10	N#C[C@@H]1CC(F)(F)CN1C(=O)CNC(=O)c1ccncc1Oc1ccccc1 [Compound 97, (S)—N-(2-(2-cyano-4,4-difluoropyrrolidin-1-yl)-2-oxoethyl)-3-phenoxyisonicotinamide]
> 10	> 50	< 1	< 1	> 10	> 10	Cc1ccc(-c2cnccc2C(=O)NCC(=O)N2CC(F)(F)C[C@H]2C#N)o1 [Compound 106, (S)—N-(2-(2-cyano-4,4-difluoropyrrolidin-1-yl)-2-oxoethyl)-3-(5-methylfuran-2-yl)isonicotinamide]
> 10	> 50	< 1	< 1	1 to 10	1 to 10	N#C[C@@H]1CC(F)(F)CN1C(=O)CNC(=O)c1ccncc1-c1ccc(N)nc1 [Compound 107, (S)-6′-amino-N-(2-(2-cyano-4,4-difluoropyrrolidin-1-yl)-2-oxoethyl)-[3,3′-bipyridine]-4-carboxamide formate]
> 10	> 50	< 1	< 1	> 10	> 10	Cc1noc(C)c1-c1cnccc1C(=O)NCC(=O)N1CC(F)(F)C[C@H]1C#N [Compound 110, (S)—N-(2-(2-cyano-4,4-difluoropyrrolidin-1-yl)-2-oxoethyl)-3-(3,5-dimethylisoxazol-4-yl)isonicotinamide]
> 10	> 50	< 1	< 1	> 10	> 10	CCOc1cnccc1C(=O)NCC(=O)N1CC(F)(F)C[C@H]1C#N [Compound 113, (S)—N-(2-(2-cyano-4,4-difluoropyrrolidin-1-yl)-2-oxoethyl)-3-ethoxyisonicotinamide]
	> 50	< 1	< 1		1 to 10	N#C[C@@H]1CC(F)(F)CN1C(=O)CNC(=O)c1ccncc1CCc1ccccc1 [Compound 125, (S)—N-(2-(2-cyano-4,4-difluoropyrrolidin-1-yl)-2-oxoethyl)-3-phenethylisonicotinamide]

Source: patent US11780821B2, “Inhibitors of fibroblast activation protein” (Praxis Biotech LLC, priority 2017, dated 2023)
